Assay results published in ChEMBL document CHEMBL3507680, “University of Dundee, Gates Library screen for HepG2 cell viability”.

Assay: Human HepG2 cell viability assay in 384 well format
Assay type: toxicity, cell-based
Design: dose 125 nL, time 70.5 hour; cytotoxicity at 70.5 h: concentration not given beside the values
Settings: HepG2 cells, read-out: Inhibition

Compound	cytotoxicity at 70.5 h [%]
O=C(O)CCC(=O)Nc1nn(Cc2ccc(F)cc2)cc1Cl	27.9
COCCO[C@@H]1CCN(C(=O)c2ccnnc2)[C@H]1Cc1cnn(C)c1	-116
CN(C)C(=O)NC1COC2(CCN(Cc3ccc(Cl)c(F)c3)CC2)C1 (configuration not stated)	-8.77
COCc1n[nH]c2c1CN(Cc1cccs1)C2	-6.13
Cc1noc(C)c1CSCc1csc(CS(C)(=O)=O)n1	0.624
CC1=C(c2ccc(C(C)C)cc2)S(=O)(=O)N=C1N1CCc2ccccc21	33.6
CN(C)CCN1C[C@@H]2OCCN(Cc3cnn(C)c3)[C@@H]2C1	-8.58
Cc1nc(CN2CC(CCCc3ccccn3)(C(=O)N(C)C)C2)co1	-1.84
Cn1ccc(C(=O)NCCOc2ccc3c(c2)CCC3)cc1=O	-3.77
O=C(C1CC1)N1CCC2(CCN(Cc3cccc(F)c3)CC2)CC1	-0.144
O=S(=O)(Cc1ccccc1)c1nnc(N2CCCC2)s1	-2.76
COc1ccc2[nH]nc(CN3CCC(C(=O)N4CCCCC4)CC3)c2c1	-1.62
CCCS(=O)(=O)N1Cc2nccn2CC(CN2CCCC2)C1 (configuration not stated)	-4.76
CCCN(CCO)C(=O)C1CCC(=O)N(CCc2ccc(Cl)cc2)C1 (configuration not stated)	-4.6
CC(=O)Oc1ccnc(C(F)(F)F)c1C(C)=O	-3.5
CN(Cc1csc(-c2ccccc2)n1)C(=O)CCNS(C)(=O)=O	-8.29
CCN1C[C@H]2C3(CCN(C(=O)NC(C)C)CC3)CC[C@@]2(C(=O)NC)C1	-11.3
COc1ccsc1C(=O)NC1CCN(c2ccc(C#N)cc2)CC1	-5.67
CNC(=O)c1cc(NC(=O)NC(C)CCc2cccn2C)ccc1F (configuration not stated)	22.7
Cc1occc1C(=O)N1CCC2(CCCN(CC3CCC3)C2=O)C1 (configuration not stated)	-4.3
c1ccc(-c2noc(CCCN3CCCC3Cn3cccn3)n2)cc1 (configuration not stated)	10.7
CCn1ncnc1C(C)Nc1cc(C)c2ccc(SC)cc2n1 (configuration not stated)	-11.1
Cc1csc(Nc2cc(C3CCCCN3C)nc(C)n2)n1 (configuration not stated)	0.668

Compound	cytotoxicity at 70.5 h [%]
Cn1nc2c(cc1=O)CN(CC1CCCCO1)CC2 (configuration not stated)	-2.64
Cc1nc(CN2CCCN(CC(=O)Nc3ccncc3)CC2)no1	5.91
CNS(=O)(=O)c1ccc(CN2CCCN(c3ccccc3)CC2)cc1	18
Cc1ccc(C(CNCc2ccncc2)N2CCOCC2)s1 (configuration not stated)	18.9
OCCn1cc(CN2CCN(CCOc3cccc(F)c3)CC2)cn1	1.71
CCCc1nc(C)c(C(=O)NCCN2CCN(CC)CC2)s1	-5.5
Cc1nc(CN(C)C2CCN(Cc3ccno3)C2)no1 (configuration not stated)	29.4
Cc1ccc(C(=O)NCC(O)CN2CCCC2=O)c(C)c1 (configuration not stated)	-1.64
CC(C)N1CCC(CN2CCn3nc(CNC(=O)N(C)C)cc3C2)CC1	4.16
O=C(Nc1ccccc1)C1CCCN(c2cc(-n3cncn3)ncn2)C1 (configuration not stated)	-1.76
CCN1CCCC1CNC(=O)CCSc1ccc2c(c1)OCCO2 (configuration not stated)	2.47
CCc1nc(CN2CCN(C(=O)C3(C#N)CCCCC3)CC2)cs1	-0.0355
Cc1cc(CN2CCN(C(=O)NC(C)c3ccc(C)o3)CC2)on1 (configuration not stated)	-9.49
Cc1cccc(CN2CCC3(CCCN(C(=O)N(C)C)C3)C2=O)n1 (configuration not stated)	-3.06
COCCC(C)NCc1ccccc1-n1ccnc1 (configuration not stated)	-3.09
COc1ccccc1CN1C[C@@H](F)[C@@H](OCc2nc3cnccc3[nH]2)C1	-4.23
O=C(NCc1cccnc1)Nc1cc(C(F)(F)F)c[nH]c1=O	-9.57
CCC(CC)NCC(c1ccccn1)N1CCOCC1 (configuration not stated)	2.77
CS(=O)(=O)N1C[C@H](C(=O)Nc2cccnc2)[C@@H]2CCO[C@@H]2C1	-4.86
c1cnc(N2CCO[C@H]3[C@H](OCCN4CCOCC4)CC[C@@H]32)nc1	-2.53
Cc1n[nH]c(C2CN(CC(=O)NCCc3ccc(F)cc3)CCO2)n1 (configuration not stated)	-114
Cc1nccc(N(C)Cc2ncc(-c3ccccc3C(=O)O)s2)n1	-1.97
Cc1ccc(CNC(=O)Nc2nncs2)n1C	-7.51

Compound	cytotoxicity at 70.5 h [%]
COCc1cc(CNC(=O)c2c(C)cc(C)[nH]c2=O)n[nH]1	-1.97
CCc1nc(C2CCCN2C(=O)c2nccnc2N)no1 (configuration not stated)	-18.5
Cc1nc(-c2nnc[nH]2)sc1C(=O)N1CCCC1CC(C)(C)C (configuration not stated)	-5.06
OCCC1CCN(c2ccnc3ccsc23)C1 (configuration not stated)	-3.95
CC(=O)N(Cc1ncc(C)o1)C1CCN(Cc2cccc(C#N)c2)C1 (configuration not stated)	-5.2
O=C1CNc2ncnc(N3CCN(Cc4cccc(F)c4)CC3)c2N1	17.9
COc1cc(CNC(=O)Nc2nncs2)ccc1O	-1.98
Cc1nccn1-c1ccc(C(C)NCc2cccn2C)cc1 (configuration not stated)	-4.2
O=C(c1ccoc1)N1CCC(NCc2ccccc2-n2ccnc2)CC1	9.01
CCc1ccc(C(=O)N2CCCC(n3cncn3)C2)o1 (configuration not stated)	-2.71
O=C1O[C@@H]2CN(Cc3cccc(O)c3)C[C@@H]2N1CCCN1CCOCC1	-4.83
O=C(C1CCS(=O)(=O)C1)N1CCC(=Cc2cccc(F)c2)CC1 (configuration not stated)	-9.56
CC(C)c1cccc(CSc2nnc(CN3CCCC3=O)o2)n1	-8
CC(=O)Nc1nc(CN2CCCCC2Cn2cccn2)cs1 (configuration not stated)	6.38
O=C(c1ccc[nH]1)N1CCc2ncc(Cn3cccn3)n2CC1	18.1
COc1ccc(CNC(=O)Nc2ccc(S(=O)(=O)C(F)F)cc2)cc1	8.9
Cn1ccnc1SCC(=O)NCCC1CCCO1 (configuration not stated)	31.2
COCC(=O)N1CCC(C(=O)Nc2ccc(S(N)(=O)=O)cc2)CC1	-7.49
Cc1nc2ccc(C(=O)N3CC[C@H](O)[C@@H](N4CCOCC4)CC3)cc2[nH]1	0.0805
CCOC(=O)CCNC(=O)c1nc(OCC)ccc1Cl	-3.61
COc1ccc(S(=O)(=O)N2CCc3ccc(Cl)cc32)cc1C(=O)O	0.6
CC(Nc1ccc(Oc2cccc(C#N)c2)cc1)C(=O)NC1CC1 (configuration not stated)	-3.83
CC(Cn1ccnc1)NCc1csc2c1CCCC2 (configuration not stated)	-0.368

Compound	cytotoxicity at 70.5 h [%]
Cc1ccc(C(=O)NC2CCCCNC2=O)c(=O)[nH]1 (configuration not stated)	-6.58
Cc1ccc(CN(CCCN2CCOCC2)Cc2cncn2C)o1	-4.09
O=C(c1ccoc1)N1CCC2(C1)CN(c1nccs1)C2	-2.55
Cc1nc2c(c(N[C@@H](CO)C(N)=O)n1)Cc1ccccc1OC2	-9.03
CSCC(=O)N1CCc2c(cnc(C)c2-c2noc(-c3cscn3)n2)C1	-15.6
CCNC(=O)N1CCc2ccc(NC(=O)NCC3CC3)cc21	-12.1
CN(CCn1ccc2ccccc21)C(=O)CS(C)(=O)=O	18
O=C(c1ccnnc1)N1C[C@@H]2OCCN(CCN3CCCC3)[C@@H]2C1	4.4
CC(NC(=O)N(C)Cc1ccncc1)c1nncn1C (configuration not stated)	-4.45
CCN(C)C(=O)c1cccc(S(=O)(=O)NCCc2csc(N)n2)c1	19.2
Cc1c(CN2CCCC(c3[nH]ncc3S(C)(=O)=O)C2)cnn1C (configuration not stated)	-5.66
O=C(CCc1ccc(Cl)s1)NCc1nnc2n1CCCCC2	-15.9
NCCO[C@H]1C[C@@H](O)C12CCN(Cc1c(F)cccc1F)CC2	-7.05
Cc1ccc(NC2CCN(C(=O)CCn3nc(C)cc3C)CC2)nn1	-14.3
CC(C)n1cnnc1CN(C)Cc1ccoc1	-2.84
O=C(c1cccnc1N1CCOCC1)N1CCCC(n2cccn2)C1 (configuration not stated)	-5.6
Cc1ncoc1C(=O)N1CCOC(CCCC(C)C)C1 (configuration not stated)	-8.44
COc1ccc(OC)c(CNC(=O)N2CCC(n3cncn3)CC2)c1	35
Cc1cccc(CN2C[C@@H]3CN(C(=O)c4cnccn4)C[C@@H]3C2=O)c1	-2.3
CN(C)C(=O)CN1CC[C@]2(CN(CC3CC3)C[C@H]2c2ccccc2)C1=O	-6.06
Cc1cnc(C)c(-c2cc(O)c3c(c2)CN(c2nccs2)CCO3)n1	-5.12
CCc1cc(C(=O)N2CCCC(Cc3ccc(NC)nn3)C2)on1 (configuration not stated)	50.7
CCc1nc(CN2CCCC(NCc3ccc(C(N)=O)cc3)C2)no1 (configuration not stated)	-10.1

Compound	cytotoxicity at 70.5 h [%]
CC(C)CS(=O)(=O)N1C[C@H]2C[C@H](C(=O)N3CCCC3)[C@@H](C1)O2	0.165
Cc1ocnc1C(=O)N1CCN(C(=O)CC(C)C)[C@@H]2CS(=O)(=O)C[C@@H]21	31.4
COc1cccc(CN2CCCC2c2cccc(F)c2)c1OC (configuration not stated)	-11.8
CNc1nc(C(=O)N2CCCCC2c2ccc(CN(C)C)cc2)cs1 (configuration not stated)	1.16
O=C(c1cc(-n2cccn2)ccc1Cl)N1CCCC(N2CCCC2)C1 (configuration not stated)	-5.55
CCOCC1CN(C(=O)c2cscn2)Cc2nnn(CC3CC3)c21 (configuration not stated)	-6.01
COc1ccccc1NC(=O)NCc1nnc(SC)n1C	-5.92
Cc1nc(C2CCCN2C(=O)c2cnns2)no1 (configuration not stated)	-8.38
CC(C)CCNC(=O)c1ccc(Cl)c(NS(C)(=O)=O)c1	-4.83
CCn1nc(C)c2nc(C(C)C)nc(NCCc3ccc(O)cc3)c21	-7.1
CCc1c(C)nc2n(c1=O)CC(C(=O)Nc1sccc1C(=O)OC)CS2 (configuration not stated)	-6.34
CCCC(O)CN1CCC(=O)N(CCOC)Cc2cc3c(cc21)OCO3 (configuration not stated)	18.9
Cc1nccn1-c1ccc(CNS(=O)(=O)N2CCC(C)CC2)cn1	25.9
NC(=O)c1cn[nH]c1C1CCCN1C(=O)COc1ccccc1 (configuration not stated)	-3.18
CN(c1cccc2ccccc12)S(=O)(=O)c1cc(C(=O)O)cs1	-0.615
Cc1cccc(SC2CCN(C(=O)CCCn3cnnn3)CC2)c1	-15.1
CN1[C@H](CN2CCCC2)C[C@@H]2CN(Cc3ccoc3)CC[C@@H]21	4.1
Cc1cc(C)n(C2CCCN(C(=O)CCNS(C)(=O)=O)C2)n1 (configuration not stated)	14.9
CCN1CCCC2(CCN(Cc3nnc(C4CC4)o3)C2)C1=O (configuration not stated)	0.731
COC(=O)c1ccc(NC(=O)CN2CCCCC2C2OCCO2)cc1 (configuration not stated)	0.785
